Experimental data published in PubChem BioAssay (NCI).
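Five concentrations, 48 hours, 96-well plates. GI50 marks 50% less growth. The concentration for full growth arrest is given as TGI.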

Columns and labels:
Test in all cases: NCI-60 cell line screen, 48 h
[1] = test system: UACC-257 melanoma
[2] = test system: IGROV1 ovarian
[3] = test system: SNB-19 CNS
[4] = test system: UO-31 renal
[5] = test system: T-47D breast
[6] = test system: NCI/ADR-RES ovarian
[7] = test system: KM12 colon
[8] = test system: HCT-15 colon
[9] = test system: M14 melanoma
[10] = test system: NCI-H522 lung
[11] = test system: PC-3 prostate
[12] = test system: RPMI-8226 leukemia
[13] = test system: COLO 205 colon
[14] = test system: MOLT-4 leukemia
[15] = test system: OVCAR-3 ovarian
[16] = test system: SK-MEL-28 melanoma
[17] = test system: SF-539 CNS
[18] = test system: 786-0 renal
[19] = test system: HL-60(TB) leukemia
[20] = test system: HCT-116 colon
[21] = test system: UACC-62 melanoma
[22] = test system: A549 NSCLC
[23] = test system: SF-295 CNS
[24] = test system: SF-268 CNS
[25] = test system: CCRF-CEM leukemia
[26] = test system: OVCAR-5 ovarian
[27] = test system: LOX IMVI melanoma
[28] = test system: HOP-62 NSCLC
[29] = test system: U251 CNS
[30] = test system: K-562 leukemia
[31] = test system: DU-145 prostate
[32] = test system: MCF7 breast
[33] = test system: TK-10 renal
[34] = test system: HS 578T breast
[35] = test system: MDA-MB-435
[36] = test system: NCI-H460 lung
[37] = test system: OVCAR-4 ovarian
[38] = test system: SK-OV-3 ovarian
[39] = test system: SNB-75 CNS
[40] = test system: MDA-MB-231 breast
[41] = test system: HT29 colon
[42] = test system: NCI-H23 lung
[43] = test system: SR leukemia
[44] = test system: SN12C renal
[45] = test system: OVCAR-8 ovarian
[46] = test system: RXF 393 renal
[47] = test system: CAKI-1 renal
[48] = test system: MALME-3M melanoma
[49] = test system: HCC-2998 colon
[50] = test system: EKVX NSCLC
[51] = test system: HOP-92 NSCLC
[52] = test system: SW-620 colon
[53] = test system: SK-MEL-5 melanoma
[54] = test system: SK-MEL-2 melanoma
[55] = test system: BT-549 breast
[56] = test system: NCI-H226 lung
[57] = test system: A498 renal
[58] = test system: ACHN renal

For O=C(O)c1c[nH]c2c(OCc3ccccc3)c3ccccc3c(O)c2c1=O, the GI50 [1] was 11.8 µM, the TGI [1] was 24.2 µM and the GI50 [2] was 18.7 µM. It also gave a TGI [2] of over 100 µM, a GI50 [3] of 17.7 µM and a TGI [3] of 42.9 µM. For the same compound, the GI50 [4] was 20 µM, the TGI [4] was over 100 µM and the GI50 [5] was 21.5 µM. The TGI [5] was 73.8 µM, the GI50 [6] was 16.5 µM and the TGI [6] was 47.7 µM. For the same compound, the GI50 [7] was 12.6 µM, the TGI [7] was 29.4 µM and the GI50 [8] was 16.6 µM. The TGI [8] was 31.9 µM, the GI50 [9] was 12.6 µM and the TGI [9] was 25.2 µM. It also gave a GI50 [10] of 25.7 µM, a TGI [10] of over 100 µM and a GI50 [11] of 15.1 µM. It also gave a TGI [11] of 45.9 µM, a GI50 [12] of 9.04 µM and a TGI [12] of 35.8 µM. For the same compound, the GI50 [13] was 17.6 µM, the TGI [13] was 34.7 µM and the GI50 [14] was 15.6 µM. It also gave a TGI [14] of 36.9 µM, a GI50 [15] of 1.86 µM and a TGI [15] of 11.8 µM. The GI50 [16] was 19.3 µM, the TGI [16] was 36.9 µM and the GI50 [17] was 19.7 µM. For the same compound, the TGI [17] was 36.4 µM, the GI50 [18] was 21.7 µM and the TGI [18] was 43.9 µM. For the same compound, the GI50 [19] was 19.7 µM, the TGI [19] was 46.1 µM and the GI50 [20] was 15 µM. For the same compound, the TGI [20] was 28.2 µM, the GI50 [21] was 3.97 µM and the TGI [21] was 13.3 µM. It also gave a GI50 [22] of 16.4 µM, a TGI [22] of 30.7 µM and a GI50 [23] of 13 µM. It also gave a TGI [23] of 27.8 µM, a GI50 [24] of 22.4 µM and a TGI [24] of 64 µM. It also gave a GI50 [25] of 10 µM, a TGI [25] of 34.7 µM and a GI50 [26] of 20 µM. It also gave a TGI [26] of 34.2 µM, a GI50 [27] of 3.24 µM and a TGI [27] of 11 µM. For the same compound, the GI50 [28] was 17.5 µM, the TGI [28] was 31.4 µM and the GI50 [29] was 2.43 µM. The TGI [29] was 5.19 µM, the GI50 [30] was 3.2 µM and the TGI [30] was over 100 µM. The GI50 [31] was 21.1 µM, the TGI [31] was 37.2 µM and the GI50 [32] was 14.9 µM. The TGI [32] was 34.3 µM, the GI50 [33] was 22.8 µM and the TGI [33] was 43.4 µM. For the same compound, the GI50 [34] was 33.2 µM, the TGI [34] was 70.1 µM and the GI50 [35] was 2.18 µM. It also gave a TGI [35] of 4.08 µM, a GI50 [36] of 14.9 µM and a TGI [36] of 38.7 µM. It also gave a GI50 [37] of 43.6 µM, a TGI [37] of over 100 µM and a GI50 [38] of 23.7 µM. It also gave a TGI [38] of 85.6 µM, a GI50 [39] of 19.5 µM and a TGI [39] of 43.1 µM. The GI50 [40] was 20.2 µM, the TGI [40] was over 100 µM and the GI50 [41] was 21.7 µM. For the same compound, the TGI [41] was 58.8 µM, the GI50 [42] was 3.22 µM and the TGI [42] was 14.3 µM. The GI50 [43] was 28.3 µM, the TGI [43] was 59.6 µM and the GI50 [44] was 11.3 µM. It also gave a TGI [44] of 23.3 µM, a GI50 [45] of 11.8 µM and a TGI [45] of 40.9 µM. The GI50 [46] was 23.4 µM, the TGI [46] was 45.6 µM and the GI50 [47] was 17 µM. It also gave a TGI [47] of 35 µM.

For CC(=O)O[C@H]1CC[C@@]2(C)C(=C[C@H](c3ccc(O)cc3)[C@H]3[C@@H]4CC[C@H](OC(C)=O)[C@@]4(C)CC[C@@H]32)C1, the TGI [1] was 51.6 µM, the TGI [3] was 47.7 µM and the TGI [4] was 76.4 µM. It also gave a TGI [6] of 31.9 µM, a TGI [48] of 34.2 µM and a TGI [49] of 36.2 µM. The TGI [7] was 31 µM, the TGI [8] was 24.8 µM and the TGI [9] was 41.3 µM. The TGI [50] was 37.4 µM, the TGI [11] was 46.2 µM and the TGI [12] was 45.8 µM. The TGI [51] was 81.5 µM, the TGI [13] was 35.2 µM and the TGI [14] was 45.3 µM. For the same compound, the TGI [15] was 38.8 µM, the TGI [52] was 46.2 µM and the TGI [17] was 43.9 µM. It also gave a TGI [18] of 38.3 µM, a TGI [19] of 58 µM and a TGI [53] of 23.8 µM. The TGI [20] was 29.7 µM, the TGI [21] was 23 µM and the TGI [22] was 40.5 µM. It also gave a TGI [23] of 77.9 µM, a TGI [24] of 39.3 µM and a TGI [25] of 56.1 µM. For the same compound, the TGI [26] was 97.9 µM, the TGI [27] was 27.1 µM and the TGI [28] was 66.9 µM. The TGI [54] was 48.4 µM, the TGI [29] was 48 µM and the TGI [30] was 59.4 µM. For the same compound, the TGI [31] was 48.8 µM, the TGI [32] was 57.4 µM and the TGI [33] was over 100 µM. It also gave a TGI [35] of 62.6 µM, a TGI [36] of 40.6 µM and a TGI [37] of 41 µM. It also gave a TGI [38] of over 100 µM, a TGI [39] of 51.7 µM and a TGI [40] of 35.8 µM. It also gave a TGI [55] of 29.4 µM, a TGI [41] of 26.5 µM and a TGI [42] of 53.7 µM. For the same compound, the TGI [56] was 40.5 µM, the TGI [44] was 69 µM and the TGI [45] was 33.8 µM. It also gave a TGI [46] of 51.1 µM, a TGI [47] of 53.4 µM and a TGI [57] of 57.8 µM. For the same compound, the TGI [58] was 80.6 µM.
